Measurements taken from ChEMBL document CHEMBL4261649, “Design and synthesis of boron containing monosaccharides by the hydroboration of d-glucal for use in boron neutron capture therapy (BNCT)” (Bioorg Med Chem, 2018).
Calls of active or inactive are those of the source. The rule behind the calls is not given here.

Experiments:
[1] = Drug uptake in human A549 cells at 30 uM after 7 to 24 hrs under hypoxic condition by ICP-MS analysis; type: ADME, cell-based; conditions: a549, 30 µM
[2] = Drug uptake in human HeLaS3 cells at 30 uM after 7 to 24 hrs under normoxic condition by ICP-MS analysis; type: ADME, cell-based; conditions: hela s3, 30 µM
A549 = experiment: Cytotoxicity against human A549 cells assessed as reduction in cell viability up to 1600 uM after 16 hrs by MTT assay; type: functional, cell-based
HeLa S3 = experiment: Cytotoxicity against human HeLaS3 cells assessed as reduction in cell viability up to 1600 uM after 16 hrs by MTT assay; type: functional, cell-based
[3] = Drug uptake in human HeLaS3 cells at 30 uM after 7 to 24 hrs under hypoxic condition by ICP-MS analysis; type: ADME, cell-based; conditions: hela s3, 30 µM
[4] = Drug uptake in human A549 cells at 30 uM after 7 to 24 hrs under normoxic condition by ICP-MS analysis; type: ADME, cell-based; conditions: a549, 30 µM
hexokinase [5] = experiment: (§1) Substrate activity at hexokinase (unknown origin) assessed as compound phosphorylation after 1 days in presence of ATP by 31-P NMR spectroscopic analysis; type: ADME; conditions: human, hexokinase (isolated enzyme); read-out: Activity
[6] = as §1; type: ADME; conditions: human, 24 h
hexokinase [7] = experiment: Substrate activity at hexokinase (unknown origin) assessed as compound phosphorylation after 5 days in presence of ATP by 31-P NMR spectroscopic analysis; type: ADME; conditions: human, hexokinase (isolated enzyme); read-out: Activity
[8] = Drug uptake in human HeLaS3 cells assessed per cell at 30 uM after 7 hrs under normoxic condition by ICP-MS analysis; type: ADME, cell-based; conditions: hela s3, 7 h
[9] = Drug uptake in human HeLaS3 cells assessed per cell at 30 uM after 7 hrs under hypoxic condition by ICP-MS analysis; type: ADME, cell-based; conditions: hela s3, 7 h

| Drug uptake [1] | Drug uptake [2] | Drug uptake [3] | Drug uptake [4] | metabolised at 24 h (hexokinase [5]) | Activity [6] | metabolised at 120 h (hexokinase [7]) | Drug uptake [8] | Drug uptake [9] | SMILES | Activity (A549) | Activity (HeLa S3) |
| --- | --- | --- | --- | --- | --- | --- | --- | --- | --- | --- | --- |
| Active | Active | Active | Active |  |  |  |  |  | OC[C@H]1OC[C@H](B2OC3(CCCCC3)C3(CCCCC3)O2)[C@@H](O)[C@@H]1O | Active | Active |
| Active | Active | Active | Active |  |  |  |  |  | c1ccc(B2OC3(CCCCC3)C3(CCCCC3)O2)c(CN2CCNCCNCCNCC2)c1 |  |  |
|  |  |  |  | 97% |  |  |  |  | OC[C@H]1OC(O)[C@H](O)[C@@H](O)[C@@H]1O (stereo partly drawn) [DEXTROSE] |  |  |
| Active | Active | Active | Active |  | Not Active |  |  |  | CC1(C)OB([C@H]2CO[C@H](CO)[C@@H](O)[C@@H]2O)OC1(C)C | Active | Active |
|  |  |  |  |  | Active | 19% |  |  | O=P(O)(O)OC[C@H]1OC(O)[C@H](O)[C@@H](O)[C@@H]1O (stereo partly drawn) |  |  |
|  | Active |  | Active |  |  |  |  |  | CC1CC(C)OB([C@H]2CO[C@H](CO)[C@@H](O)[C@@H]2O)O1 (stereo partly drawn) | Active | Active |
|  | Active |  | Active |  |  |  |  |  | OC[C@H]1OC[C@H](B2OCCCO2)[C@@H](O)[C@@H]1O | Active | Active |
| Active | Active | Active | Active |  | Active |  | 0.3 fmol | 0.4 fmol | OC[C@H]1OC[C@H](B(O)O)[C@@H](O)[C@@H]1O | Active | Active |
| Active | Active | Active | Active |  |  |  |  |  | N[C@@H](Cc1ccc(B(O)O)cc1)C(=O)O | Active | Active |
